{
  "source": "patent US20180015098A1",
  "about": "(LAM Therapeutics, Inc., priority 2015, published 2018)",
  "system": "panel of 456 kinases",
  "experiment": "Screen of apilimod against a comprehensive panel of 456 kinases (PIKfyve not included)",
  "assay_type": "binding",
  "conditions": "screening concentration 1 μM",
  "text": "Next, apilimod was screened against a comprehensive panel of kinases (PIKfyve not included).",
  "data": [
    {"compound": "Cc1cccc(/C=N/Nc2cc(N3CCOCC3)nc(OCCc3ccccn3)n2)c1", "note": "[apilimod]", "values": [
      {"measurement": "binding to kinases of the panel", "value": "did not bind to any of the 456 kinases tested"}
    ]}
  ]
}
